Measurements: patent US20160038532A1, “Treatment of Multiple Sclerosis With Combination of Laquinimod and Glatiramer Acetate” (TEVA PHARMACEUTICAL INDUSTRIES, LTD., priority 2011, published 2016)
Values joined by “and” are separate entries in the source; they are usually repeats but may differ in a detail not shown here. Equal values may be shown once.

How the values were obtained:
MOG-induced EAE [1] = test: Summary of studies of GA-blocking + laquinimod in MOG-induced EAE (Examples 2.1-2.3); type: in vivo, mice
Method: FIG. 4 is a graphical representation summarizing experimental results from Examples 2.1-2.3.
At higher doses (5 and 25 mg/kg) laquinimod provides an additive effect over GA-blocking as summarized in Table 9 and shown on FIGS. 4A and 4B.

MOG-induced EAE [2] = test: MOG-induced EAE with GA blocking and s.c. daily GA (Example 2.5); type: in vivo, C57B1 mice; design: key to MMS value / GMS value: EAE clinical grade (Table 2); ≥1 = sick, 6 = dead/sacrificed
Method: The objective of this study was to test the suppressive effect of laquinimod alone and in combination with Glatiramer acetate in the EAE model in C57B1 mice. […] Laquinimod was administered orally at dose levels of 2.5 and 5.0 mg/kg.
EAE was induced in the mice by the injection of the encephalitogenic emulsion (MOG/CFA). Laquinimod was administered orally for 30 consecutive days.
EAE induction EAE was induced by injecting the encephalitogenic mixture (emulsion) consisting of MOG ([…]). A 0.2 ml emulsion was injected subcutaneously into the flanks of the mice. Pertussis toxin was injected intraperitoneally on the day of induction and 48 hours later (total amount will be 0.150+0.150=0.300 μg/mouse in 0.2 ml dosage volume).
Groups 1, 3-8: 45.9 mg MOG was diluted in […] Normal Saline (3.0 mg/ml MOG stock solution). 12.5 mL of 3.0 mg/ml stock solution was diluted in 12.5 mL Normal Saline to yield 1.5 mg MOG/mL. […] The emulsification was made from equal parts of oil and liquid portions (1:1) in two syringes connected to each other with Leur lock, transferred to insulin syringe and 0.2 ml was injected the right flank of each mouse. The dose of the MOG in all the groups (1 to 8) was […].
The test concentrations of laquinimod were prepared in purified water. For high dose (25.0 mg/kg) 2.5 mg/mL stock solution was prepared (group 8). The 2.5 mg/mL stock solution was diluted 1:5 and 1:10 to yield 0.5 and 0.25 mg/mL for dose levels of 5.0 mg/kg for groups 5 and 7 and 2.5 mg/kg respectively for groups #4 and 6. Laquinimod was administered daily from the initiation of the study, to the respective groups by gavage at a volume of 0.2 ml/mouse.
(§1) Every day one tube was thawed and brought to RT.
Clinical signs Scoring of EAE clinical signs was started from Day 10 post EAE induction and was continued daily until Day 30. The clinical signs were recorded according to a grading system described in the Table 2 above.
(§2) All mice having scores of 1 and above were considered sick. When the first clinical sign appeared all mice were given food soaked in water, which was spread on different places on the bedding of the cages. An animal which continued to have score 5 for three days was killed on humane grounds and given score 6 on the next day. For calculation purposes, the score of animals that were sacrificed or died (6) was carried forward.

MOG-induced EAE [3] = test: MOG-induced EAE with GA blocking and s.c. daily GA (Example 2.4); type: in vivo, C57B1 mice; design: key to MMS value / GMS value: clinical score per grading system; 1+ = sick, 5 = dead/killed
Method: The C57B1 strain of mouse was selected, as it is an established EAE model.
Laquinimod was administered daily orally for 30 days at dose level of 5.0 mg/kg or 25.0 mg/kg.
Disease was induced in the mice by the injection of the encephalitogenic emulsion (MOG/CFA). Laquinimod was administered orally for 30 consecutive days from the initiation of the study.
EAE induction EAE was induced by injecting the encephalitogenic mixture (emulsion) consisting of MOG (150.0 μg/mouse). A volume of 0.2 ml of emulsion was injected subcutaneously into the flanks of the mice. Pertussis toxin was injected intraperitoneally on the day of induction and 48 hours later (total amount was 0300 μg/mouse in 0.2 ml dosage volume).
The emulsion (for groups 2 and 3 and groups 1 and 4 to 8) were made from equal parts of oil and liquid portions (1:1) in two syringes connected to each other with Leur lock, transferred to insulin syringe and 0.2 ml was injected to the right flank of each mouse. The dose of the MOG in all the groups (1 to 8) was 150 μg/mouse.
The test concentrations of laquinimod were prepared in purified water. For high dose (25.0 mg/kg) 2.5 mg/mL stock solution were prepared (groups #3, 6 and 8). The stock solutions were diluted 1:5 to yield 0.5 mg/mL for dose level of 5.0 mg/kg for groups 5 and 7. Laquinimod was administered to the respective groups by gavage at a volume of 0.2 ml/mouse.
as §1
Clinical signs Scaring of EAE clinical signs was started from Day 10 post EAE induction and was continued daily until Day 30. The clinical signs were recorded according to a grading system described in the table 11 below
as §2, with “mice” for “All mice”, “4” for “5”, “5” for “6”, “died” for “died (6)”
• The number of sick animals in each group were summed. • The incidence of disease was calculated as
• The number of dead or moribund animals in each group were summed. • The mortality of disease was calculated as
• The mean duration of disease expressed in days was calculated as
• The mean onset of disease expressed in days was calculated as
• The mean maximal score (MMS) of each group was calculated as
• The daily scores of each mouse in the test group were summed and the Individual mean daily score (IMS) was calculated as […]

[4] = LAQ 2.5 mg/kg oral daily 30 d, alone or + GA 250 mg/kg s.c. daily 10 d
[5] = LAQ 2.5 mg/kg oral daily 30 d, alone or + GA 250 mg/kg s.c. daily 10 d, listed as LAQ
[6] = LAQ 5.0 mg/kg oral daily 30 d, alone or + GA 250 mg/kg s.c. daily 10 d
[7] = LAQ 25.0 mg/kg oral daily 30 d, alone or + GA 250 mg/kg s.c. daily 10 d
[8] = GA blocking 12.5 mg/kg once with encephalitogen
[9] = GA blocking 12.5 mg/kg once with encephalitogen, listed as GA blocking
[10] = GA blocking 12.5 mg/kg once with encephalitogen, alone or + LAQ 25.0 mg/kg oral daily 30 d
[11] = GA blocking 12.5 mg/kg once with encephalitogen, alone or + LAQ 25.0 mg/kg oral daily 30 d, listed as GA blocking

## CCN(C(=O)c1c(O)c2c(Cl)cccc2n(C)c1=O)c1ccccc1 [laquinimod]
MOG-induced EAE [1]; Mus musculus, laquinimod 2.5 mg/kg, alone or + GA Blocking, read-out: Mean percent inhibition, Examples 2.1-2.3 summarized
  inhibition at 2.5 mg/kg: 53.6%
MOG-induced EAE [1]; Mus musculus, laquinimod 5 mg/kg, alone or + GA Blocking, read-out: Mean percent inhibition, Examples 2.1-2.3 summarized
  inhibition at 5 mg/kg: 57.3%
MOG-induced EAE [1]; Mus musculus, laquinimod 25 mg/kg, alone or + GA Blocking, read-out: Mean percent inhibition, Examples 2.1-2.3 summarized
  inhibition at 25 mg/kg: 74.9%
MOG-induced EAE [2]; [4]
  % Inhibition 1 (incidence): 57.1%
  GMS value: 0.5 ± 0.8
  Incidence: 6/15
  MMS % Inhibition 2: 55.9%
  MMS value: 1.5 ± 2.1
  Mean Duration: 0.8 ± 2.6 days
  Mean Onset: 30.3 ± 2.6 days
  Mortality: One
MOG-induced EAE [2]; [5]
  GMS % Inhibition 3: 76.2%
  Mortality: 1/15
MOG-induced EAE [2]; LAQ 2.5 mg/kg oral daily 30 d, alone or + GA 250 mg/kg s.c. daily 10 d, listed as LQ
  GMS % Inhibition 3: 76.2%
MOG-induced EAE [2]; [6]
  % Inhibition 1 (incidence): 64.3%
  GMS value: 0.6 ± 0.7
  Incidence: 9/15
  MMS % Inhibition 2: 38.2%
  MMS value: 2.1 ± 1.8
  Mean Duration: 5.7 ± 6.6 days
  Mean Onset: 25.1 ± 6.8 days
  Mortality: 0/15
MOG-induced EAE [2]; LAQ 25.0 mg/kg oral daily 30 d
  % Inhibition 1 (incidence): 100.0%
  GMS % Inhibition 3: 100.0%
  GMS value: 0.0 ± 0.0
  Incidence: 0/15
  MMS % Inhibition 2: 100.00%
  MMS value: 0.0 ± 0.0
  Mean Duration: 31.0 ± 0.0 days
  Mean Onset: 0.0 ± 0.0 days
  Mortality: 0/15
MOG-induced EAE [2]; LAQ 25.0 mg/kg oral daily 30 d, listed as LAQ
  GMS % Inhibition 3: 100.00%
MOG-induced EAE [2]; LAQ 25.0 mg/kg oral daily 30 d, listed as LQ
  GMS % Inhibition 3: 100%
MOG-induced EAE [3]; [6]
  % Inhibition 1 (incidence): 52.9%
  GMS % Inhibition 3: 71.4%
  GMS value: 0.6 ± 0.9
  Incidence: 8/10
  MMS % Inhibition 2: 55.9%
  MMS value: 1.5 ± 1.8
  Mean Duration: 4.2 ± 6.0 days
  Mean Onset: 26.9 ± 6.0 days
  Mortality: 0/20
MOG-induced EAE [3]; [7]
  % Inhibition 1 (incidence): 88.2%
  GMS % Inhibition 3: 95.2%
  GMS value: 0.1 ± 0.4
  Incidence: 2/20
  MMS % Inhibition 2: 91.2%
  MMS value: 0.3 ± 1.0
  Mean Duration: 0.8 ± 2.6 days
  Mean Onset: 30.3 ± 2.6 days
  Mortality: 0/20

## L-glutamic acid polymer with L-alanine, L-lysine and L-tyrosine, acetate (salt) [GA]
MOG-induced EAE [1]; GA-blocking alone
  Mean percent inhibition, Examples 2.1-2.3 summarized: 67.6%
MOG-induced EAE [2]; GA 250 mg/kg s.c. daily 10 d
  % Inhibition 1 (incidence): 100.0%
  GMS % Inhibition 3: 4.8%
  GMS value: 2.0 ± 1.0
  Incidence: 13/15
  MMS % Inhibition 2: 2.9%
  MMS value: 3.3 ± 1.4
  Mean Duration: 12.1 ± 5.3 days
  Mean Onset: 18.1 ± 5.5 days
MOG-induced EAE [2]; [8]
  % Inhibition 1 (incidence): 57.1%
  GMS value: 0.7 ± 1.0
  Incidence: 6/15
  MMS % Inhibition 2: 61.8%
MOG-induced EAE [2]; [9]
  GMS % Inhibition 3: 66.7%
  MMS value: 1.3 and 1.3 ± 1.8
  Mean Duration: 12.1 days and 12.1 ± 5.3 days
  Mean Onset: 26.1 ± 7.0 days
MOG-induced EAE [2]; GA blocking 12.5 mg/kg once with encephalitogen, listed as GA-Block
  GMS % Inhibition 3: (66.7) %
MOG-induced EAE [3]; GA 250 mg/kg s.c. daily 10 d
  % Inhibition 1 (incidence): 23.5%
  GMS % Inhibition 3: 38.1%
  GMS value: 1.3 ± 1.1
  Incidence: 13/20
  MMS % Inhibition 2: 26.5%
  MMS value: 2.5 ± 1.9
  Mean Duration: 8.3 ± 6.7 days
  Mean Onset: 22.5 ± 6.7 days
MOG-induced EAE [3]; [10]
  % Inhibition 1 (incidence): 52.9%
  GMS value: 0.5 ± 0.9
  Incidence: 8/20
  MMS % Inhibition 2: 70.6%
  Mean Duration: 4.3 ± 6.3 days
  Mean Onset: 26.6 ± 6.4 days
MOG-induced EAE [3]; [11]
  GMS % Inhibition 3: 76.2%
  MMS value: 1.0 ± 1.5
MOG-induced EAE [3]; GA blocking 12.5 mg/kg once with encephalitogen, alone or + LAQ 25.0 mg/kg oral daily 30 d, listed as GA-Block
  GMS % Inhibition 3: (76.2) %
